Read-outs that look alike come from different tables or passages of the source.
Tests used:
[1] = target: BRD4-BD1 (Homo sapiens (Human), UniProt O60885); experiment: AlphaLisa bromodomain binding assay, BRD4-BD1
[2] = target: JAK2 (Homo sapiens (Human), UniProt O60674); experiment: HTRF kinase assay, JAK2; assay type: biochemical
Description: A kinase assay with HTRF was used to observe JAK activity and calculate the IC50s of compounds disclosed herein. HTRF is an enzymatic assay used to determine the amount of phosphorylated peptide. FRET (Fluorescence Resonance Energy Transfer) is based on the transfer of energy between two fluorophores—a donor and an acceptor—when in close proximity. Molecular interactions between biomolecules can be assessed by coupling each partner with a fluorescent label and by detecting the level of energy transfer. The amount of phopshorylated peptide can be detected using a combination of a Eu 3+Cryptate labeled anti-phospho residue antibody, SA-XL665 and a biotinylated substrate. The signal is proportional to the concentration of phospho-residues.
Equipment Required • 1. […] Plate centrifuge • 3. Plate shaker • 4. […] Single channel and multi-channel pipettes • 6. Microplate reader (Pherastar)]
Stock and Final Assay Concentrations (FAC) • 1. All reference and test compounds are made at a concentration of 10 mM in DMSO. Compounds are serially diluted in DMSO and a FAC starting from 10 μM to 10 point 3 fold serial dilutions is arrived. For Ruxolitinib the starting FAC is 1 μM. FAC of DMSO is 1%. • 2. Enzyme stock and FAC
• JAK-1: Invtirogen Cat: PR8767C • JAK-2: Invtirogen Cat: PR7820B • JAK-3: Invtirogen Cat: PR7507B • 3. Substrate (synthetic peptide-Biotinylated-N-terminal tag-[…] from Biopeptide) stock and FAC
• Adenosine 5′-triphosphate disodium salt hydrate: Sigma Cat: A26209 • 5. […] Buffers • Base buffer (for 50 ml)
• HTRF buffer: • 50 mM Tris-HCl, pH—7.5 • 100 mM NaCl • 0.1% BSA • 0.05% Tween20 • 0.5 mM EDTA
To a 384 well black-plate: • 1. Add 17 μL of the buffer to each well of the 384-well black plate • 2. […] Add 5 μl of the enzyme to each well of the plate • 4. Add 10 μl of the substrate and ATP mix to all the wells • 5. Cover with plate sealer • 6. […] Incubate at room temperature for 1 hour on shaker • 8. […] Add 37.5 μL of the HTRF mix to these wells. • 9. Incubate the plate at room temperature on shaker for 45 minutes. • 10.
The percent inhibition is calculated in the excel analysis template and the IC50 values are subsequently determined using a sigmoidal dose-response curve (variable slope) using GraphPad Prism® 5 software.

[3] = Table 6, read-out: BRD4(1) IC50

JAK2, sequence (O60674 whole entry): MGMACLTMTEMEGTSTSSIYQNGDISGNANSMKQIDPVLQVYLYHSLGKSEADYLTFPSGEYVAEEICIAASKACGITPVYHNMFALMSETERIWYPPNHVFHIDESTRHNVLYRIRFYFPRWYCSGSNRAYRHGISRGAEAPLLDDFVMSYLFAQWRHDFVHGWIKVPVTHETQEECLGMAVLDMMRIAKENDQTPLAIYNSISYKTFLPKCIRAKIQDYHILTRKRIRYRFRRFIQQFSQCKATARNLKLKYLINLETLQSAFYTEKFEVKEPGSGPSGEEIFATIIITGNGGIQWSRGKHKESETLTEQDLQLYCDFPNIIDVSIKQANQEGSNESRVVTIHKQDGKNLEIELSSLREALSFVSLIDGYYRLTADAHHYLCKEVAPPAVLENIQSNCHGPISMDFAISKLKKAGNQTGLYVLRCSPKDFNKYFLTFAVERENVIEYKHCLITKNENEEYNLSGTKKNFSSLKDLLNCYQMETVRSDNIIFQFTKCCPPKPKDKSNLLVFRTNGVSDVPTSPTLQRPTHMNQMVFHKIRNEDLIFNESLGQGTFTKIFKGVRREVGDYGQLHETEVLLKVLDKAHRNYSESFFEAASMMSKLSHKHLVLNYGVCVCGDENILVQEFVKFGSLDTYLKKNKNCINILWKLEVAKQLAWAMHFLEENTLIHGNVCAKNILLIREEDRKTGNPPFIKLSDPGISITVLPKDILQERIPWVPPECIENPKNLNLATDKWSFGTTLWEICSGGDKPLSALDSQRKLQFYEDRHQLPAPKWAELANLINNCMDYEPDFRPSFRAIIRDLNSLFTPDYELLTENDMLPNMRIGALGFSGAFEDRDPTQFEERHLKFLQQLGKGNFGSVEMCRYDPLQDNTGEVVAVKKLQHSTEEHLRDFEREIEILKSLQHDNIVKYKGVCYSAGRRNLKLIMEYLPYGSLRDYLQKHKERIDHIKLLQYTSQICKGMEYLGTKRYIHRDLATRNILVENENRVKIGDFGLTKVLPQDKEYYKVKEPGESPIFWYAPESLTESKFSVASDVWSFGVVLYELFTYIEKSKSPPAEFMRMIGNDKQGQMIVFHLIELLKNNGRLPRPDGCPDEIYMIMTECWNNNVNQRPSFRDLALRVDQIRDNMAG

SMILES	IC50 [1, 3] [nM]	IC50 ([2]; Table 6) [nM]	IC50 ([1]; Table 5, read-out: BRD4 IC50) [nM]	IC50 ([2]; Table 5) [nM]
CC(C)(C)S(=O)(=O)Nc1cc(-n2ccc3cnc(Nc4ccc(N5CCC(C(=O)O)CC5)c(F)c4)nc32)ccc1F	1100	120	–	–
CN1CCN(c2ccc(Nc3ncc4ccn(-c5cccc(NS(=O)(=O)C(C)(C)C)c5)c4n3)cc2C(N)=O)CC1	577	72	–	–
CN1CCN(c2ccc(Nc3ncc4ccn(-c5cccc(CNS(=O)(=O)C(C)(C)C)c5)c4n3)cc2)CC1	8300	3	–	–
CN1CCN(c2ccc(Nc3ncc4ccn(-c5cccc(NS(=O)(=O)C6(C)CC6)c5)c4n3)cc2)CC1	930	12	–	–
CN1CCN(c2ccc(Nc3ccc4ccn(-c5cccc(NS(=O)(=O)C(C)(C)C)c5)c4n3)cc2)CC1	10000	10000	–	–
CN1CCN(c2ccc(Nc3ncc4cccc(-c5cccc(NS(=O)(=O)C(C)(C)C)c5)c4n3)cc2)CC1	3800	10	–	–
CN(C)C1CCN(c2ccc(Nc3ncc4ccn(-c5cccc(NS(=O)(=O)C6(C)CC6)c5)c4n3)cc2)CC1	636	6	–	–
CCC1(S(=O)(=O)Nc2cccc(-n3ccc4cnc(Nc5ccc(N6CCC(N(C)C)CC6)cc5)nc43)c2)CC1	1400	4.7	–	–
CCC1(S(=O)(=O)Nc2cccc(-n3ccc4cnc(Nc5ccc(N6CCC(N(C)C)CC6)c(F)c5)nc43)c2)CC1	1500	5	–	–
CCC1(S(=O)(=O)Nc2cc(-n3ccc4cnc(Nc5ccc(N6CCC(N(C)C)CC6)c(F)c5)nc43)ccc2F)CC1	963	24	–	–
CCC1(S(=O)(=O)Nc2cc(-n3ccc4cnc(Nc5ccc(N6CCN(C)CC6)c(F)c5)nc43)ccc2F)CC1	1500	103	–	–
CN1CCN2c3ccc(Nc4ncc5scc(-c6cccc(NS(=O)(=O)C(C)(C)C)c6)c5n4)cc3CC2C1 (stereo not drawn)	607	2	–	–
CN1CCCc2cc(Nc3ncc4ccn(-c5cccc(NS(=O)(=O)C(C)(C)C)c5)c4n3)ccc21	800	70	–	–
CN1C(=O)CCc2cc(Nc3ncc4ccn(-c5cccc(NS(=O)(=O)C(C)(C)C)c5)c4n3)ccc21	3200	35	–	–
CN1CCN2c3c(F)cc(Nc4ncc5ccn(-c6cccc(NS(=O)(=O)C(C)(C)C)c6)c5n4)cc3CC2C1 (stereo not drawn)	571	14	–	–
CN(C)C1CCN(c2ccc(Nc3ncc4ccn(-c5cccc(NS(=O)(=O)C(C)(C)C)c5)c4n3)cc2)C1 (stereo not drawn)	854	37	–	–
CNCC1CCN(c2ccc(Nc3ncc4c(n3)N(c3cccc(NS(=O)(=O)C(C)(C)C)c3)CC4)cc2F)CC1	580	9	–	–
CC(C)(C)S(=O)(=O)Nc1cccc(-c2csc3cnc(Nc4cc(F)c5c(c4)CC4CNCCN54)nc23)c1 (stereo not drawn)	766	5	–	–
CN1CCN(c2ccc(Nc3ncc4ccn(-c5cccc(NS(=O)(=O)C6CC6)c5)c4n3)cc2)CC1 [drawing 74]	–	–	355	2.5
CN(C)C1CCN(c2ccc(Nc3ncc4ccn(-c5cccc(NS(=O)(=O)C(C)(C)C)c5)c4n3)cc2)CC1 [drawing 75]	–	–	173	7.3
CN(C)C1CCN(c2ccc(Nc3ncc4ccn(-c5cccc(NS(=O)(=O)C(C)(C)C)c5)c4n3)cc2F)CC1 [drawing 76]	–	–	131	3
CC(C)(C)S(=O)(=O)Nc1cccc(Nc2nc(NC3CCNCC3)nc3sccc23)c1 [drawing 267]	590	10000	–	–

Other lines, results leading:

IC50 [1, 3] [nM]	IC50 ([2]; Table 6) [nM]	IC50 ([1]; Table 5, read-out: BRD4 IC50) [nM]	IC50 ([2]; Table 5) [nM]	SMILES
142	251	–	–	CNCCNC(=O)Cc1ccc(Nc2ncc3ccn(-c4ccc(F)c(NS(=O)(=O)C(C)(C)C)c4)c3n2)cc1F
295	142	–	–	CC(C)(C)S(=O)(=O)Nc1cc(-n2ccc3cnc(Nc4ccc(N5CCNC(=O)C5)c(F)c4)nc32)ccc1F
491	129	–	–	CN(C)C(=O)C1CCN(c2ccc(Nc3ncc4ccn(-c5ccc(F)c(NS(=O)(=O)C(C)(C)C)c5)c4n3)cc2F)CC1
368	3	–	–	CN(C)C1CCN(c2ccc(Nc3ncc4scc(-c5cccc(NS(=O)(=O)C(C)(C)C)c5)c4n3)cc2)CC1
143	83	–	–	CN(C)CC1CCN(c2ccc(Nc3ncc4ccn(-c5ccc(F)c(NS(=O)(=O)C(C)(C)C)c5)c4n3)cc2F)CC1
366	14	–	–	CN1CCN2c3ccc(Nc4ncc5ccn(-c6cccc(NS(=O)(=O)C(C)(C)C)c6)c5n4)cc3CC2C1 (stereo not drawn)
321	137	–	–	CN1CCN2c3ccc(Nc4ncc5ccn(-c6ccc(F)c(NS(=O)(=O)C(C)(C)C)c6)c5n4)cc3CC2C1 (stereo not drawn)
297	4	–	–	CN(C)C1CCN(c2ccc(Nc3ncc4scc(-c5cccc(NS(=O)(=O)C(C)(C)C)c5)c4n3)cc2F)CC1
393	18	–	–	CN1CCN(c2ccc(Nc3ncc4scc(-c5cccc(NS(=O)(=O)C(C)(C)C)c5)c4n3)cc2F)CC1
248	20	–	–	CN(C)C1CCN(c2ccc(Nc3ncc4ccn(-c5ccc(F)c(NS(=O)(=O)C6(C)CC6)c5)c4n3)cc2F)CC1
228	36	–	–	CN1CCN(c2ccc(Nc3ncc4scc(-c5ccc(F)c(NS(=O)(=O)C(C)(C)C)c5)c4n3)cc2F)CC1
318	5	–	–	CC(C)(C)S(=O)(=O)Nc1cccc(-c2csc3cnc(Nc4ccc5c(c4)CC4CNCCN54)nc23)c1 (stereo not drawn)
162	51	–	–	CC(C)(C)S(=O)(=O)Nc1cc(-c2csc3cnc(Nc4ccc(N5CCNCC5)c(F)c4)nc23)ccc1F
300	6	–	–	CC(C)(C)S(=O)(=O)Nc1cccc(-n2ccc3cnc(Nc4cc(F)c5c(c4)CC4CNCCN54)nc32)c1 (stereo not drawn)
421	2	–	–	COc1cc(Nc2ncc3ccn(-c4cccc(NS(=O)(=O)C(C)(C)C)c4)c3n2)ccc1N1CCC(N(C)C)CC1
560	1	–	–	COc1cc(Nc2ncc3scc(-c4cccc(NS(=O)(=O)C(C)(C)C)c4)c3n2)ccc1N1CCC(N(C)C)CC1

IC50 [1, 3] [nM]	IC50 ([2]; Table 6) [nM]	IC50 ([1]; Table 5, read-out: BRD4 IC50) [nM]	IC50 ([2]; Table 5) [nM]	SMILES
356	4	–	–	COc1cc(Nc2ncc3scc(-c4cccc(NS(=O)(=O)C(C)(C)C)c4)c3n2)ccc1N1CCNCC1
357	6	–	–	CNC1CCN(c2ccc(Nc3ncc4ccn(-c5cccc(NS(=O)(=O)C(C)(C)C)c5)c4n3)cc2F)CC1
431	2	–	–	CNC1CCN(c2ccc(Nc3ncc4scc(-c5cccc(NS(=O)(=O)C(C)(C)C)c5)c4n3)cc2F)CC1
234	29	–	–	CNC1CCN(C(=O)c2ccc(Nc3ncc4ccn(-c5cccc(NS(=O)(=O)C(C)(C)C)c5)c4n3)cc2F)CC1
298	12	–	–	CNC1CCN(C(=O)c2ccc(Nc3ncc4scc(-c5cccc(NS(=O)(=O)C(C)(C)C)c5)c4n3)cc2F)CC1
383	56	–	–	CN1CCN2c3c(F)cc(Nc4ncc5ccn(-c6ccc(F)c(NS(=O)(=O)C(C)(C)C)c6)c5n4)cc3CC2C1 (stereo not drawn)
538	17	–	–	CNC1CCN(c2ccc(Nc3ncc4ccn(-c5cccc(NS(=O)(=O)C(C)(C)C)c5)c4n3)cc2)C1 (stereo not drawn)
220	7	–	–	CNCC1CCN(c2ccc(Nc3ncc4ccn(-c5cccc(NS(=O)(=O)C(C)(C)C)c5)c4n3)cc2F)CC1
211	12	–	–	Cc1cnc(Nc2ccc(N3CCN(C)CC3)cc2)nc1Nc1cccc(NS(=O)(=O)C(C)(C)C)c1 [drawing 114]
180	10	–	–	Cc1cnc(Nc2ccc(N3CCN(C)CC3)cc2)nc1Nc1cccc(NS(=O)(=O)C(C)(C)C)c1 [drawing 196]
221	7	–	–	Cc1cnc(Nc2ccc(N3CCN(C)CC3)cc2)nc1Nc1cccc(NS(=O)(=O)C(C)(C)C)c1 [drawing 226]
133	8	–	–	Cc1cnc(Nc2ccc(N3CCN(C)CC3)cc2)nc1Nc1cccc(NS(=O)(=O)C(C)(C)C)c1 [drawing 231]
255	10	–	–	Cc1cnc(Nc2ccc(N3CCN(C)CC3)cc2)nc1Nc1cccc(NS(=O)(=O)C(C)(C)C)c1 [drawing 258]
257	10000	–	–	CC(C)(C)S(=O)(=O)Nc1cccc(Nc2nc(NC3CCNCC3)nc3sccc23)c1 [drawing 270]
164	8	–	–	Cc1cnc(Nc2ccc(N3CCN(C)CC3)cc2)nc1Nc1cccc(NS(=O)(=O)C(C)(C)C)c1 [drawing 276]
228	10	–	–	Cc1cnc(Nc2ccc(N3CCN(C)CC3)cc2)nc1Nc1cccc(NS(=O)(=O)C(C)(C)C)c1 [drawing 281]

— patent publication US11279703B2, “Fused pyrimidine compounds as BRD4 and JAK2 dual inhibitors and methods for use thereof” (APTOSE BIOSCIENCES INC., priority 2016, dated 2022)
